The values below come from EP3375430A1, “FRAGRANCE COMPOSITIONS” (Takasago International Corporation, priority 2017, dated 2018).

SMILES strings stand for the structures.

Data set [1] can be described thus: Headspace concentration of fragrance ingredients over blotter (thermal desorption GC-MS). It counts as physicochemical. As to conditions: COM1 dosed at 20 wt%; after 8 hours. As for the experimental part: The headspace concentration of individual ingredients of fragrance TAK, as formulated in either a conventional EdT (EdT1) or a fragrance composition of the invention (C1), was assessed by the method described below.
A 10 cm length was cut from a standard perfumers' blotter. A sample of 100µL volume was applied to the upper surface of the blotter with a syringe. The blotter was placed on a hot plate thermostatted at 32°C and left to equilibrate for 5 minutes. Two desorption tubes (6cm length 4mm internal diameter) each containing 2 cm length of Tenax TA adsorbent were fitted to the glass part of a headspace apparatus shown in figure 9. The glass part was fitted over the blotter, a metering pump was connected to one of the desorption tubes and air was drawn through the apparatus flushing the headspace over the blotter at a rate of 17mL/min. Sampling continued for about 16.5 minutes until 280mL of air had been extracted. Then the outlet desorption tube was analysed by gas chromatography as described below. The glass part was removed from the blotter which was left on the hotplate until the next sampling time when two fresh desorption tubes were fitted and the extraction procedure repeated for a further 280mL of extracted headspace.
• Initial Temp: 50°C • Initial Time: 5 min • Rate: 3°C /min • Final Temp: 250°C • Final Time: 20 min • Run Time: 91.67 min
• Column: HP-5MS 30m * 0.25mm * 0.25µm • Gas: Helium • Constant pressure 12.675 psi
• Initial Temp: -30°C • Equilibration Time: 0.05 min • Initial Time: 0.00 min • Rate 12°C / min • End Temp: 260°C • Hold Time: 10 min
Temperature program • Initial Temp: 35°C • Delay Time: 0.30 min • Initial Time: 0.00 min • Rate: 30°C / min • End Temp: 250°C • Hold Time: 5.00 min
TDU Settings • Transfer Temp: 250°C • Transfer Temp Mode: Fixed • Desorption Mode: splitless • Sample mode: Retain tube - standby cooling • Standby Temp: 50°C
Detector MS • MS 5973 • Mass range: 35 to 350 • Threshold: 150 • Mass Quad: 150°C • Mass Source: 230°C
Following the procedure of example 2, the headspace concentration of representative ingredients of fragrance COM1 was determined. COM1 was dosed at 5 and 20 % either in control EdT3 and EdT4 or in compositions of the invention C7 and C8, as shown in table 10.
The headspace concentration of individual ingredients of fragrance TAK (see Table 1), as formulated in either a conventional EdT (EdT1) or fragrance compositions of the invention (C14, C15), was assessed by the method described in example 2.

Data set [2] can be described thus: Amount of fragrance ingredients retained on paper blotter after evaporation (ethanol extraction, GC-MS). It counts as physicochemical. As to conditions: Table 9. The method, boiled down: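 100 µL of fragrance formulation applied to paper blotters kept at 32°C open to air; at each time three blotters extracted 1 h in ethanol with methyl decanoate internal standard and analysed by GC-MS (HP-5MS, 50–280°C). Amounts averaged over triplicates and expressed as percent of time-zero level.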

As for `CC/C=C(\C)C(O)CCCCC` (centres unmarked) [Undecavertol™, (E)-4-methyldec-3-en-5-ol], the “presence in the headspace of composition C8 compared to control EdT4” value in data set [1] is “more present”. In addition, the “amount of fragrance ingredient retained on blotter (percentage of the initial amount)” value in data set [2] (fragrance COM1 in C5, T0 + 15 min) is 84.6%; in data set [2] (fragrance COM1 in C5, T0 + 480 min), 19.1%; in data set [2] (fragrance COM1 in C5, T0 +1440 min), 2.62%; in data set [2] (fragrance COM1 in C6, T0 + 15 min) it was 73.2%; in data set [2] (fragrance COM1 in C6, T0 + 480 min), 14%; in data set [2] (fragrance COM1 in C6, T0 +1440 min), 3.1%. Also, the “amount of fragrance ingredient retained on blotter (percentage of the initial amount)” value in data set [2] (fragrance COM1 in EdT2, C5 or C6, T0, set at 100% (normalisation)) worked out at 100%; in data set [2] (fragrance COM1 in EdT2, T0 + 15 min), 75.7%; in data set [2] (fragrance COM1 in EdT2, T0 + 480 min), 8.41%; in data set [2] (fragrance COM1 in EdT2, T0 +1440 min) it was 4.93%.
